# In patent US11096903B2, “Use of pinocarveol” (INDUSTRY-ACADEMIC COOPERATION FOUNDATION, YONSEI UNIVERSITY, priority 2015, dated 2021):
# Where “and” joins values, the source holds several entries; their conditions need not be identical. Identical values can stand only once.
# Columns and labels:
# [1] = cited from earlier work
# Dietary Obese Mice [2] = assay: Liver function indexes (ALT, AST activity) in blood plasma; format: in vivo; conditions: PD vs HFD group, 10 weeks
# Protocol: (§1) As a control drug, metformin (Met) or sibutramine (Sibu) which is an anti-obesity drug was added at a concentration of about 0.01% to HFD and used (Table 1). For a normal diet (chow) group, a commercially available rodent chow was fed. Pinocarveol, metformin, and sibutramine were all purchased from Sigma-Aldrich Company (U.S.).
# (§2) 5-week-old male C57BL/6J mice (Orient, Korea) were adjusted to a laboratory condition with solid feed for one week and randomly assigned to a high fat diet control group and experimental groups according to the randomized block method, followed by raising for ten weeks. Diet was supplied with water between 10 and 11 a.m. every day, intake amounts of diet was measured every day, and weight was measured every week. In order to prevent sudden weight changes due to feed intake, feed containers were removed, and weight was measured after 2 hours. Experimental animals were fasted for 12 hours or longer and anaesthetized by diethyl ether, and blood, liver, adipose tissues of internal organs (epididymal fat, fat around the kidney, mesenteric fat, and retroperitoneal fat) were collected, washed with 0.1M phosphate buffer solution (pH 7.4), and measured for weight. Blood collected from abdominal aorta was centrifuged at 1,000×g for 15 minutes to separate blood plasma.
# Dietary Obese Mice [3] = assay: Oral glucose tolerance test; format: in vivo; conditions: PD vs HFD group, at 8 weeks, d-glucose 2 g/kg oral
# Protocol: An obesity inducing diet used in the present invention included a high fat control diet (HFD: 40% fat calorie, 17 g lard, and 3% corn oil/100 g diet), and a pinocarveol-supplemented high fat diet (PD) supplemented with pinocarveol (80,613, Sigma-Aldrich Company, CAS Number: 547-61-5, (1S,3R,5S)-6,6-dimethyl-2-methylenebicyclo[3,1,1]heptan-3-ol) has the same composition as HFD, but about 0.2% of pinocarveol was added. As a control drug, metformin (Met) or sibutramine (Sibu) which is an anti-obesity drug was added at a concentration of about 0.01% to HFD and used (Table 1). For a normal diet (chow) group, a commercially available rodent chow was fed. Pinocarveol, metformin, and sibutramine were all purchased from Sigma-Aldrich Company (U.S.).
# At 8 weeks of experimental raising, experimental animals were fasted for 16 hours and orally administered with d-glucose corresponding to 2 g/kg body weight, and blood was collected from the tail vein of mice at time points of 15 minutes, 30 minutes, 60 minutes, and 120 minutes. The glucose concentration of collected blood was measured by using a script-operation blood glucose sensor (ONETOUCH Ultra, Inverness Medical Ltd., U.K.).
# Dietary Obese Mice [4] = assay: Plasma lipid concentration (commercial measurement kit); format: in vivo; conditions: 10 weeks
# Protocol: as §1, §2
# In order to evaluate the concentrations of plasma cholesterol, neutral fat, and free fatty acids of experimental animals raised for ten weeks, a commercially available measurement kit (Bio Clinical System, Korea) was used to perform measurement by repeating 2 measurements, respectively.
# Dietary Obese Mice [5] = assay: Fasting blood glucose and insulin concentration; format: in vivo; conditions: PD vs HFD group, 10 weeks
# Protocol: as §1
# Meanwhile, the glucose concentration of the blood plasma obtained during fasting which was collected from mice raised for 10 weeks was measured by using a biochemical automatic analyzer (Express Plus, Chiron Diagnostics Co., U.S.), and kit reagents for analysis were purchased from Bio-Clinical System (Korea).
# The insulin concentration of blood plasma obtained during fasting was measured by using a mouse insulin ELISA kit (Millipore Corporation, U.S.).
# [6] = system: IL-6, TNFα, MCP1, and leptin; assay: Inflammatory cytokine concentration in blood (ELISA); format: in vivo, mice; conditions: PD vs HFD group, 10 weeks
# Protocol: as §1
# The concentrations of plasma IL-6, TNFα, MCP1, and leptin were measured by the ELISA method using the Milliplex map kit (Millipore Corporation, U.S.).
# Dietary Obese Mice [7] = assay: Liver weight and lipid concentration of hepatic tissue (Folch extraction); format: in vivo; conditions: PD vs HFD group, 10 weeks
# Protocol: as §1, §2
# Lipid components of hepatic tissues were collected as follows according to the method by Folch, et al. (Folch J, Lees M, Sloane Stanley G H. A simple method for the isolation and purification of total lipids from animal tissues. J Bio Chem. 1957; 226: 497-509). 1 mL of distilled water was applied to a hepatic tissue (0.25 g) and homogenized by using a Polytron homogenizer (IKA-WERKE GmbH & Co., Ultra-Turrax, Staufen, Germany). 5 mL of a chloroform:methanol solution (2:1, v/v) was added to the homogeneous solution, mixed well and centrifuged at 1,000×g for 10 minutes to separate a lower phase. 2 mL of a chloroform:methanol solution (2:1, v/v) was added to an upper phase again, and after repeating the same procedure, lipid components of the liver were completely separated. 3 mL of a chloroform:methanol:0.05% CaCl2) (3:48:47, v/v/v) solution was added to the lower phase thus obtained, mixed for 1 minute, and centrifuged at 1,000×g for 10 minutes. After obtaining the final lower phase and completely drying with nitrogen gas, the dried lipids were dissolved in 1 mL of methanol to use for lipid component analysis.
# The concentrations of neutral fat, cholesterol, and free fatty acids of the lipid extracts of hepatic tissues were measured by using the same commercially available measurement kit (Bio Clinical System, Korea) as previously used for the analysis of plasma lipid concentration.
# β-catenin = assay: Western blot of β-catenin in adipose tissues of internal organs; format: in vivo, mice; conditions: PD vs HFD
# Protocol: (§3) A predetermined amount of visceral fat or hepatic tissues was homogenized with liquid nitrogen and a lysis buffer solution in a mortar and centrifuged at 13,000×g and 4° C. for 20 minutes, and the middle layer was obtained to quantify proteins according to the Bradford method. 50 μg of the protein was subject to electrophoresis on an SDS polyacrylamide gel, was subject to electroblotting on a PVDF hyper film, and was reacted with the corresponding antibody, β-catenin, phospho-AMPK (AMP-activated protein kinase), AMPK, GAPDH (Cell-Signaling Technology, U.S.), respectively. The signal of each protein was visualized by a chemiluminescent detection system (Amersham, U.K.), and the thickness of bands was quantified by using the Quantity One Analysis Software (Bio-Rad Laboratories, U.S.).
# Dietary Obese Mice [8] = assay: Visceral fat weight in high fat diet-fed mice; format: in vivo; conditions: 10 weeks
# Protocol: as §1, §2
# After feeding the experimental diets for 10 weeks, each of epididymal fat, fat around the kidney, mesenteric fat, and retroperitoneal fat, which compose visceral fat, was extracted to measure the weight thereof.
# Dietary Obese Mice [9] = assay: Body weight gain, diet intake and food efficiency ratio in high fat diet-fed mice; format: in vivo; conditions: 10 weeks
# Protocol: as §1, §2
# AMPK = assay: Western blot of p-AMPK/AMPK in hepatic tissues; format: in vivo, mice; conditions: PD vs HFD
# Protocol: as §3
# [10] = system: genes related to thermogenesis and adipogenesis; assay: RT-PCR gene expression in adipose tissues of internal organs; format: in vivo, mice; conditions: PD vs HFD
# Protocol: (§4) 1 mL of TRIzol solution was added per 0.1 g of adipose tissues of internal organs and hepatic tissues, and tissues were crushed and centrifuged at 4° C. and 12,000×g for 10 minutes. The supernatant was placed in a new tube, and 200 μL of chloroform was added followed by stirring. After repeating this procedure twice, the supernatant was placed in a new tube, and isopropanol and the supernatant were added at a ratio of 1:1. After strongly shaking for 10 times, the mixture was placed at room temperature for 10 minutes, centrifuged at 4° C. and 12,000×g for 10 minutes to remove the supernatant, and 1 mL of 70% ethanol was added to the precipitate to be centrifuged at 4° C. and 7,500×g for 5 minutes. After removing ethanol, the tube containing RNA precipitate was dried at room temperature for 5 minutes, and RNA pellet was dissolved using nuclease free water. By a using UV/VIS spectrophotometer (Beckman coulter, DU730, U.S.), the concentrations of RNA samples extracted at wavelengths of 260 nm and 280 nm were measured, and by carrying out agarose gel electrophoresis, the integrity of RNA samples was determined.
# (§5) For RNA samples extracted from adipose tissues of internal organs and hepatic tissues, oligo dT primers and superscript reverse transcriptase (GIBCO BRL, U.S.) were used to carry out reverse transcription to synthesize cDNA. By using the cDNA obtained by reverse transcription as a […] and using a 5′ and 3′ flanking sequence of the cDNA of the gene to be amplified as a primer, PCR was carried out, and at this time, the sequences of the used primers are shown in Table 2. 1 μL of the amplified PCR product was subject to electrophoresis on a 1% agarose gel to check for DNA bands.
# [11] = system: genes related to lipogenesis; assay: RT-PCR gene expression in hepatic tissues; format: in vivo, mice; conditions: PD vs HFD
# Protocol: as §4, §5
smiles,measurement,setting,value
"C=C1[C@H](O)C[C@@H]2C[C@H]1C2(C)C [pinocarveol, (1S,3R,5S)-6,6-dimethyl-2-methylenebicyclo[3,1,1]heptan-3-ol]",solubility in oil and ethanol,[1]; oil and ethanol,dissolve in oil and ethanol
same,solubility in water,[1]; water,does not dissolve
same,decrease in alanine aminotransferase (ALT) activity in blood plasma,Dietary Obese Mice [2],44% and 52%
same,decrease in aspartate aminotransferase (AST) activity in blood plasma,Dietary Obese Mice [2],32% and 34%
same,blood glucose concentrations over time after sugar intake (OGTT),Dietary Obese Mice [3],decrease
same,reduction of area under the curve (AUC) of the glucose concentration (OGTT),Dietary Obese Mice [3],20%
same,decrease in plasma free fatty acid concentration,Dietary Obese Mice [4]; PD vs HFD group,39%
same,decrease in plasma neutral fat concentration,Dietary Obese Mice [4]; PD vs HFD group,27%
same,decrease in plasma total cholesterol concentration,Dietary Obese Mice [4]; PD vs HFD group,16%
same,HDL-cholesterol concentration in blood,Dietary Obese Mice [4]; between the experimental groups,did not show any significant difference
same,decrease in fasting blood glucose concentration,Dietary Obese Mice [5],21%
same,decrease in fasting blood insulin concentration,Dietary Obese Mice [5],50%
same,decrease in plasma IL-6 concentration,[6],70%
same,decrease in plasma MCP1 concentration,[6],35%
same,decrease in plasma TNFα concentration,[6],28%
same,decrease in plasma leptin concentration,[6],40%
same,decrease in absolute liver weight,Dietary Obese Mice [7],30%
same,decrease in free fatty acid concentration of hepatic tissue,Dietary Obese Mice [7],65%
same,decrease in neutral fat concentration of hepatic tissue,Dietary Obese Mice [7],33%
same,decrease in total cholesterol concentration of hepatic tissue,Dietary Obese Mice [7],31%
same,protein expression amount of β-catenin,β-catenin,significant increase
same,protein expression amount of β-catenin,β-catenin; listed as PD,significantly increased
same,decrease in total visceral fat weight,Dietary Obese Mice [8]; PD vs HFD group,32%
same,"weights of epididymal fat, fat around the kidney, mesenteric fat, and retroperitoneal fat",Dietary Obese Mice [8]; PD vs HFD group,significantly reduced
same,effect of reducing body weight and visceral fat amount compared with control drugs,Dietary Obese Mice [8]; vs sibutramine and metformin diets,as much excellent effect of reducing body weight and visceral fat amount as commercially available anti-obesity drugs (sibutramine) and diabetes treatment drugs (metformin)
same,decrease in cumulative body weight gain,Dietary Obese Mice [9]; PD (about 0.2% pinocarveol in HFD) vs HFD group,32%
same,decrease in food efficiency ratio (cumulative body weight gain / total diet intake),Dietary Obese Mice [9]; PD vs HFD group,32%
same,activation (p-AMPK/AMPK ratio) of AMPK,AMPK,significant increase
same,activation (p-AMPK/AMPK ratio) of AMPK,AMPK; listed as PD,significantly increased
same,C/EBPα gene expression,[10],significantly decreased
same,CD36 gene expression,[10],significantly decreased
same,FAS gene expression,[10],significantly decreased
same,PGC-1α gene expression,[10],significantly increased
same,PPARγ2 gene expression,[10],significantly decreased
same,UCP1 gene expression,[10],significantly increased
same,UCP3 gene expression,[10],significantly increased
same,leptin gene expression,[10],significantly decreased
same,C/EBPα gene expression,[10]; listed as PD,significantly decreased again
same,CD36 gene expression,[10]; listed as PD,significantly decreased again
same,FAS gene expression,[10]; listed as PD,significantly decreased again
same,PGC-1α gene expression,[10]; listed as PD,significantly increased again
same,PPARγ2 gene expression,[10]; listed as PD,significantly decreased again
same,UCP1 gene expression,[10]; listed as PD,significantly increased again
same,UCP3 gene expression,[10]; listed as PD,significantly increased again
same,leptin gene expression,[10]; listed as PD,significantly decreased again
same,ACC gene expression,[11],significantly decreased
same,FAS gene expression,[11],significantly decreased
same,LPL gene expression,[11],significantly decreased
same,LXRα gene expression,[11],significantly decreased
same,SREBP gene expression,[11],significantly decreased
same,ACC gene expression,[11]; listed as PD,significantly decreased again
same,FAS gene expression,[11]; listed as PD,significantly decreased again
same,LPL gene expression,[11]; listed as PD,significantly decreased again
same,LXRα gene expression,[11]; listed as PD,significantly decreased again
same,SREBP gene expression,[11]; listed as PD,significantly decreased again
